The source of these data is PubChem BioAssay (NCI).

“And” between values parts separate entries of the source, which are not always exact repeats. Identical values can stand only once.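 Interpolation was linear, between the two tested concentrations surrounding the appropriate level; five concentrations were tested over 48 hours in 96-well plates. The concentration for 50% growth inhibition is given as GI50. TGI marks complete inhibition of growth.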

Among the test systems are CAKI-1 renal; CCRF-CEM leukemia; HOP-92 NSCLC; SK-MEL-5 melanoma; COLO 205 colon; UO-31 renal; SNB-75 CNS; MDA-MB-231 breast; RPMI-8226 leukemia; HT29 colon.
Experiment in all cases: DTP human tumour cell line panel, 48 h

With `O=C1/C(=C/c2ccc(Br)cc2)COc2ccc(O)c(O)c21`, the GI50 (as a rule, the concentration that inhibits growth by half) in the test with CAKI-1 renal is 0.944 µM; in the test on CCRF-CEM leukemia, 0.462 µM; with HOP-92 NSCLC, 1.26 µM; in the test with SK-MEL-5 melanoma, 1.4 µM; with COLO 205 colon, 1.53 µM; with UO-31 renal, 0.307 µM. The GI50 with SNB-75 CNS was 1.23 µM; in the test on MDA-MB-231 breast, 0.682 µM; in the test with RPMI-8226 leukemia it was 0.221 µM; in the test on HT29 colon, 2.3 µM. Further, the TGI (in general, the concentration at which net growth stops) with CAKI-1 renal is 2.25 µM; with CCRF-CEM leukemia, more than 100 µM; with HOP-92 NSCLC, 5.49 µM; in the test on SK-MEL-5 melanoma it was 2.84 µM; with COLO 205 colon, 3.18 µM; with UO-31 renal it was 1.07 µM. The TGI in the test with SNB-75 CNS was found to be 3.01 µM; in the test on MDA-MB-231 breast, 2.27 µM; in the test on RPMI-8226 leukemia, 1.02 µM; in the test on HT29 colon, 5.79 µM.
On to `CCN(CC)CCCC(CNc1ccnc2cc(Cl)ccc12)c1ccc(Cl)cc1` (stereo not given), for which the GI50 in the test with CAKI-1 renal is 1.48 µM and 0.547 µM; in the test on CCRF-CEM leukemia it was 1.71 µM and 1.2 µM; in the test with HOP-92 NSCLC, 1.44 µM and 1.16 µM; in the test on SK-MEL-5 melanoma it was 1.13 µM; with COLO 205 colon, 1.38 µM and 0.212 µM; in the test on UO-31 renal, 0.891 µM and 0.974 µM. Besides, the GI50 is 1.58 µM and 1.4 µM with SNB-75 CNS; 1.41 µM and 1.54 µM with MDA-MB-231 breast; 1.36 µM and 0.59 µM in the test with RPMI-8226 leukemia; 0.484 µM and 0.304 µM in the test on HT29 colon. Besides, the TGI with CAKI-1 renal is 3.2 µM and 1.91 µM; in the test on CCRF-CEM leukemia it was 5.17 µM and 4.6 µM; with HOP-92 NSCLC, 3.12 µM and 2.78 µM; in the test with SK-MEL-5 melanoma, 2.4 µM; in the test with COLO 205 colon, 2.94 µM and 0.466 µM; in the test on UO-31 renal it was 2.24 µM and 2.31 µM. The TGI in the test on SNB-75 CNS was 3.18 µM and 2.85 µM; in the test with MDA-MB-231 breast, 3.21 µM and 3.32 µM; with RPMI-8226 leukemia, 4.79 µM and 2.69 µM; with HT29 colon, 2.35 µM and 1.28 µM.
Turning to `O=c1c2sc(=S)n(-c3ccc(F)cc3)c2ncn1Cc1ccc(F)cc1F`, the GI50 in the test on CAKI-1 renal was 37.7 µM; with CCRF-CEM leukemia, more than 100 µM; in the test on HOP-92 NSCLC it was 44.8 µM; in the test on SK-MEL-5 melanoma, 84.3 µM; in the test on COLO 205 colon, more than 100 µM; in the test with UO-31 renal, more than 100 µM. Besides, the GI50 in the test with SNB-75 CNS was 94 µM; in the test on MDA-MB-231 breast, more than 100 µM; with RPMI-8226 leukemia it was more than 100 µM; in the test with HT29 colon, more than 100 µM. Also, the TGI with CAKI-1 renal, with CCRF-CEM leukemia, in the test on HOP-92 NSCLC, with SK-MEL-5 melanoma, with COLO 205 colon and in the test with UO-31 renal was more than 100 µM each time. For the same compound, the TGI in the test with SNB-75 CNS, in the test with MDA-MB-231 breast, in the test with RPMI-8226 leukemia and in the test on HT29 colon was more than 100 µM each time.
Take `CCN(CC)CCC(CNc1ccnc2cc(Cl)ccc12)c1ccc(OC)cc1` (stereo not given): the GI50 in the test with CAKI-1 renal was 5.85 µM and 2.54 µM; in the test on CCRF-CEM leukemia, 13.1 µM and 2.77 µM; in the test with HOP-92 NSCLC, 2.42 µM and 2.12 µM; with SK-MEL-5 melanoma it was 1.64 µM; in the test on COLO 205 colon, 1.9 µM and 1.34 µM; in the test with UO-31 renal, 1.54 µM and 1.88 µM. For the same compound, the GI50 with SNB-75 CNS was 3.39 µM and 2.35 µM; in the test on MDA-MB-231 breast, 2.34 µM and 2.42 µM; in the test with RPMI-8226 leukemia it was 7.14 µM and 2.12 µM; in the test with HT29 colon it was 2.47 µM and 0.6 µM. The TGI with CAKI-1 renal was 23.2 µM and 15.9 µM; in the test on CCRF-CEM leukemia, 55.9 µM and 28.7 µM; in the test on HOP-92 NSCLC, 14.3 µM and 11.5 µM; with SK-MEL-5 melanoma it was 3.09 µM; with COLO 205 colon it was 4.3 µM and 2.95 µM; in the test on UO-31 renal, 4.35 µM and 11.6 µM. In addition, the TGI is 17.3 µM and 7.84 µM with SNB-75 CNS; 11.2 µM and 10.9 µM with MDA-MB-231 breast; 35.5 µM and 8.15 µM in the test with RPMI-8226 leukemia; 13.2 µM and 11.2 µM in the test on HT29 colon.
Turning to `COc1ccc2c(c1)CCCC(Br)C2=O` (stereo not given), the concentration for total growth inhibition (TGI) came out at 9.45 µM with CAKI-1 renal; 1.48 µM in the test with CCRF-CEM leukemia; 23.3 µM with HOP-92 NSCLC; 9.22 µM in the test with SK-MEL-5 melanoma; 10.9 µM in the test with COLO 205 colon; 4.71 µM in the test on UO-31 renal. In addition, the total growth inhibition concentration (TGI) in the test with SNB-75 CNS worked out at 27.9 µM; with MDA-MB-231 breast, 10.9 µM; in the test on RPMI-8226 leukemia, 5.5 µM; in the test on HT29 colon, 20.2 µM.
Take `O=C(Nc1ccc(Cl)cc1F)c1ccccc1O`: the GI50 is 2.37 µM in the test with CAKI-1 renal; 3.47 µM in the test with CCRF-CEM leukemia; 1.42 µM with HOP-92 NSCLC; 1.69 µM in the test on SK-MEL-5 melanoma; 5.7 µM with COLO 205 colon; 1.25 µM in the test with UO-31 renal. The GI50 was 3.26 µM in the test on SNB-75 CNS, 1.44 µM in the test with MDA-MB-231 breast, 1.97 µM in the test with RPMI-8226 leukemia and 5.32 µM with HT29 colon. The concentration for total growth inhibition (TGI) in the test with CAKI-1 renal was 13.6 µM; in the test with CCRF-CEM leukemia, more than 100 µM; in the test on HOP-92 NSCLC, 4.59 µM; with SK-MEL-5 melanoma, 3.48 µM; with COLO 205 colon, 41.2 µM; with UO-31 renal it was 6.65 µM. The TGI with SNB-75 CNS was more than 100 µM; in the test on MDA-MB-231 breast it was 3.79 µM; with RPMI-8226 leukemia, 7.32 µM; in the test on HT29 colon it was 92.9 µM.
As for `CCCCCCCCCCCCOC1C(C(COC2OC(C3COC(C)(C)O3)C3OC(C)(C)OC23)NC(=O)Nc2ccc(C(=O)O)cc2)OC2OC(C)(C)OC21` (stereo not given), the GI50 is 5.45 µM with CAKI-1 renal; 0.306 µM in the test with CCRF-CEM leukemia; 2.55 µM in the test with HOP-92 NSCLC; 1.75 µM in the test on SK-MEL-5 melanoma; 2.71 µM in the test on COLO 205 colon; 3.99 µM in the test with UO-31 renal. Also, the GI50 was 2.47 µM in the test with SNB-75 CNS, 1.99 µM in the test with MDA-MB-231 breast, 1.69 µM with RPMI-8226 leukemia and 2.01 µM in the test on HT29 colon. Moreover, the TGI in the test with CAKI-1 renal was 17.6 µM; in the test with CCRF-CEM leukemia it was 0.577 µM; with HOP-92 NSCLC, 8.04 µM; with SK-MEL-5 melanoma it was 3.4 µM; with COLO 205 colon it was 9.05 µM; in the test with UO-31 renal it was 13.3 µM. For the same compound, the total growth inhibition concentration (TGI) was 10.8 µM with SNB-75 CNS, 4.98 µM in the test on MDA-MB-231 breast, 4.29 µM in the test with RPMI-8226 leukemia and 6.88 µM in the test on HT29 colon.
